We go through 14 molecules from patent US10059698B2, “Hesperetin aza-cinnamic acid derivatives with anti-tumor activities and a method of preparing the same” (Shaanxi University of Science and Technology, priority 2016, dated 2018).

As a reminder, the IC50 is the concentration that gives 50% inhibition. A high value points to a need for much substance.

Data set [1] has as its system nonismall cell lung cancer cells (A549). Briefly: tumor cell proliferation inhibition test (MTT), A549. The settings on record: Homo sapiens, 48 hours. The class given is cell-based. From the text: (§1) The compounds of the present invention were subjected to tumor cell proliferation inhibition test, and the conventional MTT method was used as the test method.
(§2) Cell lines selected are nonismall cell lung cancer cells (A549), human hepatocellular carcinoma cells (SMMC-7721), human glioma cells (U251), human gastric adenocarcinoma cells (SGC-7901), and human breast cancer cells (MCF-7). The culture medium was DMEM+15% NBS+double antibody.
(§3) Preparation of the sample solutions: compounds were dissolved in DMSO (Merck), and PBS (−) was add to 100 μL of the solution or homogeneous suspension. The solution or suspension was diluted with DMSO and PBS(−) to final concentrations of 0.1, 1, 10, 20, 40, 60, 80, 100 μmol/L.
(§4) Anti-tumor agent cytarabine (Ara-C) was used as control and was prepared in the same way as the compounds.
(§5) Cell culture: adherent growth Tumor cells were cultured in 1640 medium containing 10% inactivated neonatal bovine serum and penicillin, streptomycin (1 million U/L), placed in carbon dioxide incubator at 37° C., 5% CO2, and saturated humidity. Cells were treated serially passaged 2-3 times. The first culture was washed with PBS 2 times, and digested with trypsin. Fresh culture medium was added evenly, cells were adjusted to a appropriate concentration and transferred into a new culture flask. Cell in an exponential phase were chosen for the tests.
(§6) Experimental Principle: Living cells mitochondria in the dehydrogenase can reduce yellow MTT to water-insoluble blue-violet product MT (MTT formazan), deposited in the cells. The amount of production is proportional to the number of living cells. […] DMSO can dissolve blue violet crystals, and the color depth is proportional to the amount contained, so the absorbance measured by the microplate reader can reflect the cell viability.
(§7) Methods: The exponential phase cells were digested and counted and seeded in 96-well plates at a density of 2×10^4/mL at 100 μl per well. After 24 hours of incubation, the cells to be tested were treated with 0.1, 1, 10, 20, 40, 60, 80, 100 μmol/L of the compounds. Each experimental group had 5 wells in each concentration, and the culture medium containing 0.4% DMSO was used as control. After 48 hours, the supernatant was discarded, and 100 μl of MTT ((2-(4,5-dimethyl-2-thiazolyl)-3,5-diphenyl-2H-[…]) (1 mg/mL) was added to each well. After another 4 hours, the supernatant was discarded, and 100 μL of DMSO was added to each well. After mixing, the absorbance was measured at 570 nm using a microplate reader. An IC50 calculation software was used to determine the half inhibitory concentration (IC50).

The subject of data set [2] is human hepatocellular carcinoma cells (SMMC-7721). Briefly: tumor cell proliferation inhibition test (MTT), SMMC-7721. The class given is cell-based. The settings on record: SMMC-7721 cells, 48 hours.
Source text: as §1, §2, §3, §4, §5, §6, §7

The test system of data set [3] is human glioma cells (U251). Briefly: tumor cell proliferation inhibition test (MTT), U251. The class given is cell-based. The following applies: U-251, 48 hours.
Source text: as §1, §2, §3, §4, §5, §6, §7

In data set [4] the test system is human gastric adenocarcinoma cells (SGC-7901). The data set is described as follows: tumor cell proliferation inhibition test (MTT), SGC-7901. The class given is cell-based. The settings on record: SGC-7901 cells, 48 hours.
Source text: as §1, §2, §3, §4, §5, §6, §7

Data set [5] has as its system human breast cancer cells (MCF-7). Briefly: tumor cell proliferation inhibition test (MTT), MCF-7. The class given is cell-based. The settings on record: MCF7, MCF-7 cells, 48 hours.
Source text: as §1, §2, §3, §4, §5, §6, §7

The subject of data set [6] is tumor cells (A549, SMMC-7721, U251, SGC-7901, MCF-7). Briefly: tumor cell proliferation inhibition test (MTT), all cell lines tested. The class given is cell-based, human. The following applies: in some cell lines tested.
Source text: as §1, §2, §3, §4, §5, §6, §7

Data set [7] relates to HepG2 cells. The following applies: in vitro; time-dependent and dose-effect relationship; cited from earlier work.
The conditions of data set [8]: rats; cited from earlier work.

The structures appear in SMILES notation.

On to `COc1ccc([C@@H]2CC(=O)c3c(O)cc(OC(=O)/C=C/c4ccccn4)cc3O2)cc1OC` [Compound G, (S,E) 2-(3,4-dimethoxyphenyl)-5-hydroxy-4-oxochroman-7-yl 3-(pyridin-2-yl) acrylate acid ester], for which the IC50 in data set [1] was 69.13 ± 0.36 µM; in data set [2] it was > 100 µM; in data set [3] it was 28.5 ± 0.45 µM; in data set [4] it was > 100 µM; in data set [5], > 100 µM. Also, in data set [6], the “activities compared with Ara-C” value is “equal or better activities than Ara-C”.
As for `COc1ccc([C@@H]2CC(=O)c3c(O)cc(OC(=O)/C=C/c4ccc(Cl)cn4)cc3O2)cc1OC` [Compound I, (S,E) 2-(3,4-dimethoxyphenyl)-5-hydroxy-4-oxochroman-7-yl 3-(5-chloropyridin-2-yl) acrylate acid ester], the IC50 in data set [1] was > 100 µM; in data set [2] it was 63.9 ± 2.28 µM; in data set [3], 63.9 ± 2.28 µM; in data set [4], 16.1 ± 0.47 µM; in data set [5] it was > 100 µM. Further, the “activities compared with Ara-C” value in data set [6] is on record as “equal or better activities than Ara-C”.
`COc1ccc([C@@H]2CC(=O)c3c(O)cc(OC(=O)/C=C/c4ccc(F)cn4)cc3O2)cc1OC` [Compound J, (S,E) 2-(3,4-dimethoxyphenyl)-5-hydroxy-4-oxochroman-7-yl 3-(5-fluoropyridin-2-yl) acrylate acid ester]: the IC50 was 46.3 ± 0.47 µM in data set [1]; 84.31 ± 0.47 µM in data set [2]; 25.1 ± 0.47 µM in data set [3]; > 100 µM in data set [4]; 16.1 ± 0.47 µM in data set [5]. The “activities compared with Ara-C” value in data set [6] was “equal or better activities than Ara-C”.
Take `COc1ccc([C@@H]2CC(=O)c3c(O)cc(OC(=O)/C=C/c4ccc(O)c(OC)n4)cc3O2)cc1O` [Compound F, (S,E) 5-hydroxy-2-(3-hydroxy-4-methoxyphenyl)-4-oxochroman-7-yl 3-(5-hydroxy-6-methoxypyridin-2-yl) acrylate acid ester]: the IC50 in data set [1] was > 100 µM; in data set [2] it was 23.7 ± 1.5 µM; in data set [3] it was > 100 µM; in data set [4], > 100 µM; in data set [5], 92.1 ± 2.73 µM. The “activities compared with Ara-C” value in data set [6] is “equal or better activities than Ara-C”.
For the molecule `COc1ccc([C@@H]2CC(=O)c3c(O)cc(OC(=O)/C=C/c4ccc([N+](=O)[O-])cn4)cc3O2)cc1OC` [Compound K, (S,E) 2-(3,4-dimethoxyphenyl)-5-hydroxy-4-oxochroman-7-yl 3-(5-nitropyridin-2-yl) acrylate acid ester], the IC50 in data set [1], in data set [2], in data set [3], in data set [4] and in data set [5] was > 100 µM throughout.
On to `COc1ccc([C@@H]2CC(=O)c3c(O)cc(OC(=O)/C=C/c4ccc(F)cn4)cc3O2)cc1O` [Compound D, (S,E) 5-hydroxy-2-(3-hydroxy-4-methoxyphenyl)-4-oxochroman-7-yl 3-(5-fluoropyridin-2-yl) acrylate acid ester], for which the IC50 in data set [1] is 7.28 ± 0.13 µM; in data set [2] it was 12.8 ± 1.37 µM; in data set [3], 57.13 ± 0.47 µM; in data set [4], 67.13 ± 0.28 µM; in data set [5], 23.7 ± 1.5 µM. The “activities compared with Ara-C” value in data set [6] is recorded as “equal or better activities than Ara-C”.
Turning to `COc1ccc([C@@H]2CC(=O)c3c(O)cc(OC(=O)/C=C/c4ccc(C)cn4)cc3O2)cc1O` [Compound B, (S,E) 5-hydroxy-2-(3-hydroxy-4-methoxyphenyl)-4-oxochroman-7-yl 3-(5-methylpyridin-2-yl) acrylate acid ester], the IC50 in data set [1] was > 100 µM; in data set [2], 67.1 ± 1.74 µM; in data set [3] it was 46 ± 0.21 µM; in data set [4], > 100 µM; in data set [5], > 100 µM. Besides, in data set [6], the “activities compared with Ara-C” value is on record as “equal or better activities than Ara-C”.
For the molecule `COc1ccc([C@@H]2CC(=O)c3c(O)cc(O)cc3O2)cc1O` [hesperetin, Hesperetin], the “inhibition of proliferation of HepG2 cells” value in data set [7] is recorded as “can inhibit the proliferation of HepG2 cells in vitro”. Moreover, in data set [8], the toxicity of doxorubicin entry is “could reduce the toxicity of doxorubicin in rats”.
Regarding `COc1ccc([C@@H]2CC(=O)c3c(O)cc(OC(=O)/C=C/c4ccc(Cl)cn4)cc3O2)cc1O` [Compound C, (S,E) 5-hydroxy-2-(3-hydroxy-4-methoxyphenyl)-4-oxochroman-7-yl 3-(5-chloropyridin-2-yl) acrylate acid ester], the IC50 in data set [1] stood at 5.54 ± 0.39 µM; in data set [2], 86.9 ± 2.28 µM; in data set [3] it was 11.7 ± 0.45 µM; in data set [4], 18.4 ± 1.71 µM; in data set [5], 22.7 ± 0.32 µM. In addition, in data set [6], the “activities compared with Ara-C” value is recorded as “equal or better activities than Ara-C”.
For `COc1ccc([C@@H]2CC(=O)c3c(O)cc(OC(=O)/C=C/c4ccc([N+](=O)[O-])cn4)cc3O2)cc1O` [Compound E, (S,E) 5-hydroxy-2-(3-hydroxy-4-methoxyphenyl)-4-oxochroman-7-yl 3-(5-nitropyridin-2-yl) acrylate acid ester], the IC50 in data set [1], in data set [2], in data set [3], in data set [4] and in data set [5] was > 100 µM in each case.
On to `COc1ccc([C@@H]2CC(=O)c3c(O)cc(OC(=O)/C=C/c4ccc(O)c(OC)n4)cc3O2)cc1OC` [Compound M, (S,E) 2-(3,4-dimethoxyphenyl)-5-hydroxy-4-oxochroman-7-yl 3-(5-hydroxy-6-methoxypyridin-2-yl) acrylate acid ester], for which the IC50 in data set [1] was > 100 µM; in data set [2], 33.3 ± 2.08 µM; in data set [3] it was > 100 µM; in data set [4], 63.87 ± 0.4 µM; in data set [5] it was 18.6 ± 1.01 µM. Further, in data set [6], the “activities compared with Ara-C” value was “equal or better activities than Ara-C”.
For the molecule `COc1ccc([C@@H]2CC(=O)c3c(O)cc(OC(=O)/C=C/c4ccccn4)cc3O2)cc1O` [Compound A, (S,E) 5-hydroxy-2-(3-hydroxy-4-methoxyphenyl)-4-oxochroman-7-yl 3-(pyridin-2-yl) acrylic acid ester], the IC50 is 35.1 ± 0.47 µM in data set [1]; 46.8 ± 1.56 µM in data set [2]; > 100 µM in data set [3]; 89.9 ± 1.02 µM in data set [4]; 43.1 ± 1.31 µM in data set [5]. For the same molecule, in data set [6], the “activities compared with Ara-C” value was “equal or better activities than Ara-C”.
Turning to `COc1ccc([C@@H]2CC(=O)c3c(O)cc(OC(=O)/C=C/c4ccc(C)cn4)cc3O2)cc1OC` [Compound H, (S,E) 2-(3,4-dimethoxyphenyl)-5-hydroxy-4-oxochroman-7-yl 3-(5-methylpyridin-2-yl) acrylate acid ester], the IC50 in data set [1] is > 100 µM; in data set [2] it was 47.88 ± 0.4 µM; in data set [3], > 100 µM; in data set [4], 63.9 ± 2.28 µM; in data set [5] it was > 100 µM. Also, the “activities compared with Ara-C” value in data set [6] is “equal or better activities than Ara-C”.
In the case of `Nc1ccn([C@@H]2O[C@H](CO)[C@@H](O)[C@@H]2O)c(=O)n1` [Ara-C, cytarabine, reference compound], the IC50 was > 100 µM in data set [1]; 18.3 ± 0.64 µM in data set [2]; 19.2 ± 0.39 µM in data set [3]; 67.6 ± 3.73 µM in data set [4]; 76.9 ± 1.78 µM in data set [5].
